The target of data set [1] is T1, MMP-3CD (stromelysin-1 catalytic domain) (Homo sapiens, UniProt P08254).
T1 construct: Experiments were carried out with the catalytic domains of the proteinases; made in house; host or cells: Escherichia coli
Description: Thiopeptolide substrate assay, stromelysin-1 catalytic domain. Format: biochemical. The settings on record: thiopeptolide substrate; catalytic domain. The method, then: (§1) Experiments were carried out with the catalytic domains of the proteinases. […] IC50 values were determined using a thiopeptolide substrate, Ac-Pro-Leu-Gly-thioester-Leu-Leu-Gly-OEt (ye Q. -Z., Johnson L. L., Hupe D. J., and Baragi V., “Purification and Characterization of the Human Stromelysin Catalytic Domain Expressed in Escherichia coli,” Biochemistry, 1992;31:11231-11235; ye Q. -Z., Johnson L. L., yu A. E., and Hupe D., “Reconstructed 19 kDa catalytic domain of gelatinase A is an active proteinase,” Biochemistry, 1995;34:4702-4708.) MMP-13CD was expressed from a synthetic gene and purified from Escherichia coli cell culture according to a previously described method (ye Q. -Z., Johnson L. L., and Baragi V., “Gene synthesis and expression in E. coli for PUMP, a human matrix metalloproteinase,” Biochemical and Biophysical Research Communications, 1992;186:143-149.)

Data set [2] deals with T2, MMP-2CD (gelatinase A catalytic domain) (Homo sapiens, UniProt P08253, DEL220-393).
T2 construct: Experiments were carried out with the catalytic domains of the proteinases
In words: Thiopeptolide substrate assay, gelatinase A catalytic domain. Format: biochemical. The conditions noted are these: thiopeptolide substrate; catalytic domain. As to the method: as §1

The target of data set [3] is T3, MMP-13CD (collagenase-3 catalytic domain) (Homo sapiens, UniProt P45452).
T3 construct: Experiments were carried out with the catalytic domains of the proteinases; made in house; host or cells: Escherichia coli
Description: Thiopeptolide substrate assay, collagenase-3 catalytic domain. Format: biochemical. The conditions noted are these: thiopeptolide substrate; catalytic domain. As to the method: as §1

Consider 4 molecules from patent publication US6624196B2, “Benzene butyric acids and their derivatives as inhibitors of matrix metalloproteinases” (Warner-Lambert Company, priority 1999, dated 2003).

T2 sequence (P08253 with tags, fused parts or gaps DEL220-393): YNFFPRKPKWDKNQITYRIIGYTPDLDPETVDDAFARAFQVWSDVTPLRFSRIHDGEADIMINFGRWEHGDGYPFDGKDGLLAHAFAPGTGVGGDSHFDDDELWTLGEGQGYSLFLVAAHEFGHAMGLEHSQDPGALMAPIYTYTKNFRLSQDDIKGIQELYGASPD
T1 sequence (P08254 100-272 limits assumed): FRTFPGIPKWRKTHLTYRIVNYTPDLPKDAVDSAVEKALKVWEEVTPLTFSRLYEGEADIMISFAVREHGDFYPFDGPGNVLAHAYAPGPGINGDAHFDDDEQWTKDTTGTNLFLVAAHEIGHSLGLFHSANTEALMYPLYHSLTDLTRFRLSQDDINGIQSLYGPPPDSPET

For the molecule `CCCCC(=O)Nc1ccc(C(=O)CCC(=O)O)cc1` [Example 3, 4—oxo-4-(4-pentanoylamino-phenyl)-butyric acid], the melting point (as a rule, the temperature of the solid-liquid transition) fell in the range of 153 to 155 °C. Further, the IC50 (usually the concentration at which inhibition is half-maximal) in data set [1] was 8.15 µM. In data set [2], this molecule had an IC50 of 9.5 µM.
For the molecule `O=C(O)CCC(=O)c1ccc(NC(=O)c2cccc(F)c2)cc1` [Example 4, 4-[4-(3-Fluoro-benzoylamino)-phenyl]-4-oxo-butyric acid], the melting point lay within 239 to 241 °C. In addition, inhibition in data set [1] was half-maximal at 6.2 µM (IC50). The molecule also returned an IC50 in data set [2] of 1.9 µM.
In the same order, the values of `O=C(O)CCC(=O)c1ccc(NC(=O)c2ccccc2F)cc1` [Example 5, 4-[4-(2-Fluoro-benzoylamino)-phenyl]-4-oxo-butyric acid] are 191 to 193 °C, 9.8 µM and 1.9 µM.
Turning to `O=C(O)CCC(=O)c1ccc(NC(=O)c2ccc(F)cc2)cc1` [Example 6, 4-[4-(4-Fluoro-benzoylamino)-phenyl]-4-oxo-butyric acid], the melting point lay in the range of 253 to 255 °C. Further, 2.8 µM corresponded to half-maximal inhibition in data set [1] (IC50). The molecule further registered a concentration for half-maximal inhibition (IC50) in data set [3] of 85 µM. In addition, in data set [2], the IC50 turned out to be 1.7 µM.
